Laboratory results taken from patent US20240148821A1, “PHARMACEUTICAL USE OF CYCLIC PEPTIDE COMPOUND” (CHUGAI SEIYAKU KABUSHIKI KAISHA, priority 2021, published 2024).
Numbered stars: 1 amine (or outer) side, 2 acyl side, 3 side chain; on linkers, the order of the positions; unused ones are H or OH. Bridge positions count the residues as written; N and C are the ends. Square brackets hold non-standard residues; d marks the D form. Peptide text beside a SMILES is read from it. * marks the point of attachment. NMeAbu(3,3-F2-piperidino) = CN[C@@H](CCN1CCCC(F)(F)C1)C(=O)O; hPhe(3-Cl-4-CF3) = N[C@@H](CCc1ccc(C(F)(F)F)c(Cl)c1)C(=O)O; hPhe(3-F,4-CF3) = N[C@@H](CCc1ccc(C(F)(F)F)c(F)c1)C(=O)O; NMePhe(4-CF3) = CN[C@@H](Cc1ccc(C(F)(F)F)cc1)C(=O)O; hPhe(4-CF3) = N[C@@H](CCc1ccc(C(F)(F)F)cc1)C(=O)O; NMePhe(4-Cl) = CN[C@@H](Cc1ccc(Cl)cc1)C(=O)O; NMeAla(cPent) = CN[C@@H](CC1CCCC1)C(=O)O; NMeGly(cPent) = CN[C@H](C(=O)O)C1CCCC1; Pro(4,4-F2) = O=C(O)[C@@H]1CC(F)(F)CN1; NMeCha = CN[C@@H](CC1CCCCC1)C(=O)O; NMehLeu = CN[C@@H](CCC(C)C)C(=O)O; NMeChg = CN[C@H](C(=O)O)C1CCCCC1; NMeI = CC[C@H](C)[C@H](NC)C(=O)O; dNMeF = CN[C@H](Cc1ccccc1)C(=O)O; NMeβAla = CN(CCC(=O)[*:2])[*:1]; NMeD = CN[C@@H](CC(=O)O)C(=O)O; NMeL = CN[C@@H](CC(C)C)C(=O)O; NMeV = CN[C@H](C(=O)O)C(C)C; d(β3hA) = C[C@@H](N)CC(=O)O; Morpholide = C1CN(*)CCO1; NMeA = CN[C@@H](C)C(=O)O; Piperidide = C1CCN(*)CC1; Ac5c = NC1(C(=O)O)CCCC1; Aze = O=C(O)[C@@H]1CCN1; Abu = CC[C@H](N)C(=O)O; NBuGly = CCCCNCC(=O)O; Sar = CNCC(=O)O

system: Human pancreatic cancer cell line AsPC-1 (G12D mutation Kras); assay: AsPC-1 cell growth inhibition (AsPC-1 CGI); assay type: cell-based; conditions: read-out: AsPC-1 cell growth inhibition, 50% growth inhibitory concentration (IC50 value); 96 hours, CellTiter-Glo, values classified in ranges
Experimental: Test compounds were serially dilated with dimethyl sulfoxide, and 200 nL was then dispensed to a U-bottom 96-well plate using Labcyte Echo. […] The cell suspension was dispensed to a. plate containing a test compound at 100 μL per well and incubated at 37° C. in a 5% carbon dioxide gas incubator. 96 hours later, 80 μL of CellTiter-Glo (Promega) was added to each well and fluorescence was measured.

**Q.** Which IC50 does the source give for `CC[C@@H]1NC(=O)[C@H](CC(C)C)N(C)C(=O)C[C@@H](C(=O)N2CCCCC2)N(C)C(=O)[C@H](C2CCCCC2)N(C)C(=O)C2(CCCC2)NC(=O)[C@@H]2CCCN2C(=O)[C@H](CCc2ccc(C(F)(F)F)c(Cl)c2)NC(=O)CN(C)C(=O)[C@H](CC2CCCCC2)N(C)C(=O)CN(C)C(=O)CN(C)C1=O` [Compound 1775] ([NMeL][Abu][Sar][Sar][NMeCha][Sar][hPhe(3-Cl-4-CF3)]P[Ac5c][NMeChg][NMeD]-Piperidide; lactam N-11) here?
**A.** > 0.5 µM

**Q.** With `CCCCN1CC(=O)N(C)[C@@H](CC2CCCCC2)C(=O)N(C)CC(=O)N[C@@H](CCc2ccc(C(F)(F)F)c(Cl)c2)C(=O)N2CCC[C@H]2C(=O)NC2(CCCC2)C(=O)N(C)[C@@H](C(C)C)C(=O)N[C@H](C)CC(=O)N(C)[C@@H](CC(C)C)C(=O)N[C@@H]([C@@H](C)CC)C(=O)N(C)CC1=O` [Compound 1033] (cyclo([Ac5c][NMeV][d(β3hA)][NMeL]I[Sar][NBuGly][NMeCha][Sar][hPhe(3-Cl-4-CF3)]P)) as the molecule, how does the IC50 read?
**A.** > 0.5 µM

**Q.** Which IC50 does the source give for `CC[C@H](C)[C@@H]1NC(=O)[C@H](C)N(C)C(=O)C[C@@H](C(=O)N2CCCCC2)N(C)C(=O)[C@H](C(C)C)N(C)C(=O)C2(CCCC2)NC(=O)[C@@H]2CCCN2C(=O)[C@H](CCc2ccc(C(F)(F)F)c(Cl)c2)NC(=O)CN(C)C(=O)[C@H](CC2CCCCC2)N(C)C(=O)[C@@H]2CCN2C(=O)[C@H](CCC(C)C)N(C)C1=O` [Compound 1595] ([NMeA]I[NMehLeu][Aze][NMeCha][Sar][hPhe(3-Cl-4-CF3)]P[Ac5c][NMeV][NMeD]-Piperidide; lactam N-11) here?
**A.** > 0.5 µM

**Q.** `CC[C@H](C)[C@@H]1NC(=O)[C@H](C)N(C)C(=O)C[C@@H](C(=O)N2CCCCC2)N(C)C(=O)[C@H](C(C)C)N(C)C(=O)C2(CCCC2)NC(=O)[C@H](CCN2CCCC(F)(F)C2)N(C)C(=O)[C@H](CCc2ccc(C(F)(F)F)c(Cl)c2)NC(=O)CN(C)C(=O)[C@H](CC2CCCCC2)N(C)C(=O)[C@@H]2CCN2C(=O)[C@H](C)N(C)C1=O` [Compound 682] ([NMeA]I[NMeA][Aze][NMeCha][Sar][hPhe(3-Cl-4-CF3)][NMeAbu(3,3-F2-piperidino)][Ac5c][NMeV][NMeD]-Piperidide; lactam N-11) was tested. Which IC50 did it give?
**A.** > 0.5 µM

**Q.** `CC[C@H](C)[C@@H]1NC(=O)[C@H](C(C)C)N(C)C(=O)C[C@@H](C)NC(=O)[C@H](CC(C)C)N(C)C(=O)C2(CCCC2)NC(=O)[C@H](CC(C)C)N(C)C(=O)[C@H](CCc2ccc(C(F)(F)F)cc2)NC(=O)CN(C)C(=O)[C@H](Cc2ccc(Cl)cc2)N(C)C(=O)CN(C)C(=O)[C@@H]2CCN2C1=O` [Compound 538] (cyclo([Ac5c][NMeL][d(β3hA)][NMeV]I[Aze][Sar][NMePhe(4-Cl)][Sar][hPhe(4-CF3)][NMeL])) was tested. Which IC50 did it give?
**A.** > 0.5 µM

**Q.** `CC[C@H](C)[C@@H]1NC(=O)[C@H](CC(C)C)N(C)C(=O)C[C@@H](C(=O)N2CCCCC2)N(C)C(=O)[C@H]([C@@H](C)CC)N(C)C(=O)C2(CCCC2)NC(=O)[C@@H]2CCCN2C(=O)[C@H](CCc2ccc(C(F)(F)F)c(Cl)c2)NC(=O)CN(C)C(=O)[C@H](Cc2ccc(C(F)(F)F)cc2)N(C)C(=O)[C@@H]2CCN2C(=O)[C@H](C)N(C)C1=O` [Compound 630] ([NMeL]I[NMeA][Aze][NMePhe(4-CF3)][Sar][hPhe(3-Cl-4-CF3)]P[Ac5c][NMeI][NMeD]-Piperidide; lactam N-11) was tested. Which IC50 did it give?
**A.** ≤ 0.02 µM

**Q.** `CC[C@H](C)[C@@H]1NC(=O)CCN(C)C(=O)[C@@H](Cc2ccccc2)N(C)C(=O)[C@H](C2CCCC2)N(C)C(=O)C2(CCCC2)NC(=O)[C@@H]2CCCN2C(=O)[C@H](CCc2ccc(C(F)(F)F)c(Cl)c2)NC(=O)CN(C)C(=O)[C@H](CC2CCCCC2)N(C)C(=O)CN(C)C(=O)CN(C)C1=O` [Compound 753] (cyclo([Ac5c][NMeGly(cPent)][dNMeF][NMeβAla]I[Sar][Sar][NMeCha][Sar][hPhe(3-Cl-4-CF3)]P)) was tested. Which IC50 did it give?
**A.** > 0.5 µM

**Q.** `CC[C@H](C)[C@@H]1NC(=O)[C@H](CC(C)C)N(C)C(=O)C[C@@H](C(=O)N2CCOCC2)N(C)C(=O)[C@H](C(C)C)N(C)C(=O)C2(CCCC2)NC(=O)[C@@H]2CCCN2C(=O)[C@H](CCc2ccc(C(F)(F)F)c(Cl)c2)NC(=O)CN(C)C(=O)[C@H](CC2CCCC2)N(C)C(=O)CN(C)C(=O)CN(C)C1=O` [Compound 1848] ([NMeL]I[Sar][Sar][NMeAla(cPent)][Sar][hPhe(3-Cl-4-CF3)]P[Ac5c][NMeV][NMeD]-Morpholide; lactam N-11) was tested. Which IC50 did it give?
**A.** > 0.5 µM

**Q.** How did the IC50 turn out when `CC[C@H](C)[C@@H]1NC(=O)[C@H](CC(C)C)N(C)C(=O)C[C@@H](C)NC(=O)[C@H](CC(C)C)N(C)C(=O)C2(CCCC2)NC(=O)[C@@H]2CC(F)(F)CN2C(=O)[C@H](CCc2ccc(C(F)(F)F)c(F)c2)NC(=O)CN(C)C(=O)[C@H](CC2CCCCC2)N(C)C(=O)CN(C)C(=O)CN(C)C1=O` [Compound 1509] (cyclo([Ac5c][NMeL][d(β3hA)][NMeL]I[Sar][Sar][NMeCha][Sar][hPhe(3-F,4-CF3)][Pro(4,4-F2)])) was run?
**A.** > 0.5 µM
